Test [1] relates to Plasmodium falciparum. Put plainly: In vitro antimalarial activity against Plasmodium falciparum D6 (Sierra Leone). It counts as functional, organism-based.
The test system of test [2] is Plasmodium falciparum. Put plainly: In vitro antimalarial activity against Plasmodium falciparum W2 (Indochina). It is filed as functional, organism-based.

Turning to `C[C@@H]1CC[C@H]2[C@@H](C)C(=O)O[C@@H]3O[C@@]4(C)CC[C@@H]1[C@]32OO4` [ARTEMISININ], the IC50 in the test on Plasmodium falciparum [1] came to 0.0084 µM; with Plasmodium falciparum [2] it was 0.0073 µM.
For the compound `C[C@@H]1CCC[C@@H](C)C12OOC1(OO2)[C@@H](C)CCC[C@@H]1C`, the IC50 in the test on Plasmodium falciparum [1] and in the test with Plasmodium falciparum [2] was above 1 µM throughout.
`CC1(C)CCCCC12OOC1(CCCCC1(C)C)OO2` (stereo unspecified): the IC50 with Plasmodium falciparum [1] and in the test with Plasmodium falciparum [2] was above 1 µM each time.

(Values after ChEMBL document CHEMBL1133601, “Methyl-substituted dispiro-1,2,4,5-tetraoxanes: correlations of structural studies with antimalarial activity” (J Med Chem, 2000).)
